The text below walks through data of patent US12581252B2, “Substituted pyrrolo[3,4-b]pyridines as PI3K-α inhibitors” (Relay Therapeutics, Inc., priority 2020, dated 2026).

The structures appear in SMILES notation.

Sequence of H1047R PIK3CA enzyme (P42336 whole entry H1047R): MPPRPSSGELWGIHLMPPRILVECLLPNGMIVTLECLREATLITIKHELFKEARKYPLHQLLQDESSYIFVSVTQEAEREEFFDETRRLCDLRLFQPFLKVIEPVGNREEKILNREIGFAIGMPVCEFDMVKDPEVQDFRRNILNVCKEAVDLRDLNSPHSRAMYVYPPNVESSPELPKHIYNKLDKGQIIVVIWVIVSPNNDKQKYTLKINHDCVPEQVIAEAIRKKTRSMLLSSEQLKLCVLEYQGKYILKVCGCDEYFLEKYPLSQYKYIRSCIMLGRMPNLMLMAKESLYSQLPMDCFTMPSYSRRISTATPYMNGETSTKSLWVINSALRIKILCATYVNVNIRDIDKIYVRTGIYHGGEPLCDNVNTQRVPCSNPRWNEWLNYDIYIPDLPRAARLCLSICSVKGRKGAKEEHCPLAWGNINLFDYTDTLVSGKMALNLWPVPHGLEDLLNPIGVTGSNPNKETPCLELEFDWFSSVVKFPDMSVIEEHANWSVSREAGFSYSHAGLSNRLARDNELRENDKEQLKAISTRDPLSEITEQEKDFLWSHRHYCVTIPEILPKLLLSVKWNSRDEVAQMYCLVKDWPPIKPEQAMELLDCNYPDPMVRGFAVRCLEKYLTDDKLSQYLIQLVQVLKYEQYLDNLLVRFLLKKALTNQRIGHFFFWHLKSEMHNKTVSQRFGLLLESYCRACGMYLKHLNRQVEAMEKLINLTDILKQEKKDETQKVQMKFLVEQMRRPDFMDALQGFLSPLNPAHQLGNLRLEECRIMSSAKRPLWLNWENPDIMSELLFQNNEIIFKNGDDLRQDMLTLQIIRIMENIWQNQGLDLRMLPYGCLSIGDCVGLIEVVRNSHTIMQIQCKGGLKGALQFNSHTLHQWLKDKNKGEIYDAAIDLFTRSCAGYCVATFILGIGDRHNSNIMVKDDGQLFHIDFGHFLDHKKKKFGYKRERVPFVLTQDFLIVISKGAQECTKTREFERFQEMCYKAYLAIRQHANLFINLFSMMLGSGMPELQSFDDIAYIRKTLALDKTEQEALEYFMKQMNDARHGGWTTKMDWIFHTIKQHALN
Sequence of H1047R PIK3CA enzyme (P27986 whole entry partner): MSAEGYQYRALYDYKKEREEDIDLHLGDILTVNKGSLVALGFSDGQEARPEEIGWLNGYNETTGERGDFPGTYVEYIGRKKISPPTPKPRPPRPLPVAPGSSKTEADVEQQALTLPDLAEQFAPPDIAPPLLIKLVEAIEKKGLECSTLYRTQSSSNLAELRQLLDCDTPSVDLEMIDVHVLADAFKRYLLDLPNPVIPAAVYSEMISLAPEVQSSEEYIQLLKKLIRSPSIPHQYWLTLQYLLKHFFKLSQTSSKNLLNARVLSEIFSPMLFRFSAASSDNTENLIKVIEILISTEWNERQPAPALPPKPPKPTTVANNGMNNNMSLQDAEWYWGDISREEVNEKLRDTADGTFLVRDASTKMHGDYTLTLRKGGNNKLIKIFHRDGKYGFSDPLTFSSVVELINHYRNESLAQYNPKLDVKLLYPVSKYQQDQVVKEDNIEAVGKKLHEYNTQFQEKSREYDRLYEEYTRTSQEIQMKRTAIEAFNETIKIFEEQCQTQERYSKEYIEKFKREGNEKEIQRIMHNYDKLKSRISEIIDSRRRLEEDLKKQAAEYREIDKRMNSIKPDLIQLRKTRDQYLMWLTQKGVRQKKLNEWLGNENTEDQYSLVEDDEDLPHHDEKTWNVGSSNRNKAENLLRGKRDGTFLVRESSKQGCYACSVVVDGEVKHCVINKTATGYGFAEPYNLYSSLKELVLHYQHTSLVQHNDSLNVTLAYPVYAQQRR

This test addresses H1047R PIK3CA enzyme (Homo sapiens, UniProt P42336, H1047R). In words: ADP-Glo Biochemical PIK3CA Kinase Assay.
Consider `CNc1cc(NC(=O)N2C[C@@](O)(C(F)(F)F)c3cc(F)ccc32)c2c(n1)C(=O)N[C@H]2c1cc(F)ccc1Cl` (single isomer, unassigned) [Compound I-2646], for which the IC50 lay in the range of 0.5 to 1 µM.
`CS(=O)(=O)n1cc(-c2cc(NC(=O)c3cc(F)cc(C(F)(F)F)c3)c3c(c2)C(=O)N[C@@H]3c2cc(F)ccc2Cl)cn1` [Compound I-1995] yielded an IC50 of 0.5 to 1 µM.
Next, `CC(C)(CC(=O)Nc1cc(Br)cc2c1C(c1cc(F)ccc1Cl)NC2=O)C(F)(F)F` (stereo not shown) [Compound I-1757]: 10 to 100 µM; `CCn1cc(-c2cc(NC(=O)c3cc(F)cc(C(F)(F)F)c3)c3c(n2)C(=O)N[C@H]3c2cc(F)ccc2Cl)ccc1=O` [Compound I-615]: no more than 0.1 µM.
For `O=C1NC(c2ncccc2Cl)c2c(NC(=O)c3csc4ccccc34)cccc21` (stereo not shown) [Compound I-57] the value was 1 to 10 µM; for `O=C(Nc1cc(Br)cc2c1C(c1cc(F)ccc1Cl)NC2=O)c1cncc(Cl)c1` (stereo not shown) [Compound I-909], 1 to 10 µM.
In turn, `O=C(Nc1cc(-c2cn3ncccc3n2)cc2c1C(c1cc(F)ccc1Cl)NC2=O)c1cc(F)cc(C(F)(F)F)c1` (stereo not shown) [Compound I-1306] showed an IC50 of no more than 0.1 µM.
Consider `N#Cc1cnc2cc(F)c(-c3cc(NC(=O)c4cc(F)cc(C(F)(F)F)c4)c4c(c3)C(=O)N[C@@H]4c3cc(F)ccc3Cl)cn12` [Compound I-1883], for which the 50% inhibitory concentration (IC50) was 1 to 10 µM.
Next, `CS(=O)(=O)Oc1cc(NC(=O)c2cc(F)cc(C(F)(F)F)c2)c2c(c1)C(=O)NC2c1cc(F)ccc1Cl` (stereo not shown) [Compound I-1543]: no more than 0.1 µM.
Next, `O=C(Nc1cccc2c1C(c1cccc(B(O)O)c1)NC2=O)c1cc(F)cc(C(F)(F)F)c1` (stereo not shown) [Compound I-717]: 10 to 100 µM; `O=C1N[C@H](c2cc(F)ccc2Cl)c2c(NC(=O)N3C[C@](O)(C(F)(F)F)c4cc(F)ccc43)ccc(-n3cccn3)c21` (single isomer, unassigned) [Compound I-2494]: 1 to 10 µM.
The compound `O=C1NC(c2cc(F)ccc2Cl)c2c(NC(=O)[C@@H]3CC[C@@H](O)C3)cc(Br)cc21` (single isomer, unassigned) [Compound I-1976] had an IC50 of 10 to 100 µM.
`O=C1NC(c2cc(F)ccc2Cl)c2c(NC(=O)c3cccc4cccnc34)cc(Br)cc21` (stereo not shown) [Compound I-602] gave an IC50 of 1 to 10 µM.
Next, `N#CCn1ccnc1-c1cc(NC(=O)c2cc(F)cc(C(F)(F)F)c2)c2c(c1)C(=O)NC2c1cc(F)ccc1Cl` (stereo not shown) [Compound I-1454]: 0.1 to 0.5 µM.
As to `O=C(Nc1cc(Br)cc2c1[C@@H](c1cc(F)cc(F)c1Cl)NC2=O)c1cc(F)cc(C(F)(F)F)c1` [Compound I-806], the 50% inhibitory concentration (IC50) lay within 0.5 to 1 µM.
The compound `C[S@](=O)(Cc1cc(NC(=O)c2cc(F)cc(C(F)(F)F)c2)c2c(c1)C(=O)N[C@@H]2c1cc(F)ccc1Cl)=NC#N` (single isomer, unassigned) [Compound I-1561] yielded an IC50 of 0.1 to 0.5 µM.
For the compound `O=C1N[C@@H](c2cc(F)ccc2Cl)c2c(NC(=O)N3C[C@@](O)(C(F)F)c4cc(F)ccc43)cc(Cl)cc21` (single isomer, unassigned) [Compound I-2588], the half-maximal inhibitory concentration (IC50) lay within 1 to 10 µM.
`CC(=O)N1CCC[C@H](Oc2cc(NC(=O)c3cc(F)cc(C(F)(F)F)c3)c3c(c2)C(=O)NC3c2cc(F)ccc2Cl)C1` (single isomer, unassigned) [Compound I-1525] showed an IC50 of 0.1 to 0.5 µM.
As for `O=C(Nc1cc(-c2cnn(-c3nccs3)c2)cc2c1C(c1cc(F)ccc1Cl)NC2=O)c1cc(F)cc(C(F)(F)F)c1` (stereo not shown) [Compound I-1572], the half-inhibitory concentration (IC50) is no more than 0.1 µM.
For `O=C1NC(c2cc(F)ccc2Cl)c2c(NC(=O)N3CC(O)(c4scnc4C(F)(F)F)C3)cccc21` (stereo not shown) [Compound I-2417] the value was 10 to 100 µM; for `O=C(Nc1cc(-c2ccc3ncnn3c2)cc2c1[C@@H](c1cc(F)ccc1Cl)NC2=O)c1cccc(C(F)(F)F)c1` (stereo in doubt) [Compound I-1116], 10 to 100 µM; for `O=C1NC(c2cc(F)ccc2Cl)c2c(OCc3cc(F)cc(C(F)(F)F)c3)cccc21` (stereo not shown) [Compound I-2295], 10 to 100 µM.
